Reference: patent US7435736B2, “Substituted 1-piperidin-4-yl-4-azetidin-3-yl-piperazine derivatives and their use as neurokinin antagonists” (Janssen Pharmaceutica, N.V., priority 2002, dated 2008)

Tests used:
h-NK1 = h-NK1 (Homo sapiens, UniProt P25103); test: Signal transduction (ST), intracellular Ca++ FLIPR, NK1 antagonistic activity; type: cell-based; details: read-out: pIC50 h-NK1 (converted)
Method: (§1) This test evaluates in vitro functional NK1, NK2 and NK3 antagonistic activity. For the measurements of intracellular Ca^++ concentrations the cells were grown on 96-well (black wall/transparent bottom) plates from Costar for 2 days until they reached confluence. The cells were loaded with 2 μM Fluo3 in DMEM containing 0.1% BSA and 2.5 mM probenecid for 1 h at 37° C. They were washed 3× with a Krebs buffer (140 mM NaCl, 1 mM MgCl2×6H2O, 5 mM KCl, 10 mM glucose, 5 mM HEPES; 1.25 mM CaCl2; pH 7.4) containing 2.5 mM probenecid and 0.1% BSA (Ca^++-buffer). The cells were preincubated with a concentration range of antagonists for 20 min at RT and Ca^++-signals after addition of the agonists were measured in a Fluorescence Image Plate Reader (FLIPR from Molecular Devices, Crawley, England). The peak of the Ca^++-transient was considered as the relevant signal and the mean values of corresponding wells were analysed as described below.
(§2) The sigmoidal dose response curves were analysed by computerised curve-fitting, using the GraphPad Program. The EC50-value of a compound is the effective dose showing 50% of maximal effect. For mean curves the response to the agonist with the highest potency was normalised to 100%. For antagonist responses the IC50-value was calculated using non-linear regression. […]

acute emesis = details: administered together with dexamethasone and 5-HT3 antagonists; cited from earlier work
h-NK2 = biological target: T1, h-NK2 (Homo sapiens, UniProt P21452); test: Signal transduction (ST), intracellular Ca++ FLIPR, NK2 antagonistic activity; type: cell-based; details: read-out: pIC50 h-NK2 (converted)
T1 sequence (P21452 1-398): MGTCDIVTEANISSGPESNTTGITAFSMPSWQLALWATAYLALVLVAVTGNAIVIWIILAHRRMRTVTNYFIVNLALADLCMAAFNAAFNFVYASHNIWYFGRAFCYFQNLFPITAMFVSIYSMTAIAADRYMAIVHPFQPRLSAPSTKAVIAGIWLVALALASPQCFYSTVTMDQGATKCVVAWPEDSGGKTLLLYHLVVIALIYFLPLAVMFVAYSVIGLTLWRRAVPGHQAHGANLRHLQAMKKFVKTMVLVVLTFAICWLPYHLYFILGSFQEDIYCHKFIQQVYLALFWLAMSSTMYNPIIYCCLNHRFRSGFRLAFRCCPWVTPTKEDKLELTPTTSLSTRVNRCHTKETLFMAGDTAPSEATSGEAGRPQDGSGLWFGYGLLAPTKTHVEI
Method: as §1, §2

h-NK3 = biological target: T2, h-NK3 (Homo sapiens, UniProt P29371); test: Signal transduction (ST), intracellular Ca++ FLIPR, NK3 antagonistic activity; type: cell-based; details: read-out: pIC50 h-NK3 (converted)
T2 sequence (P29371 1-465): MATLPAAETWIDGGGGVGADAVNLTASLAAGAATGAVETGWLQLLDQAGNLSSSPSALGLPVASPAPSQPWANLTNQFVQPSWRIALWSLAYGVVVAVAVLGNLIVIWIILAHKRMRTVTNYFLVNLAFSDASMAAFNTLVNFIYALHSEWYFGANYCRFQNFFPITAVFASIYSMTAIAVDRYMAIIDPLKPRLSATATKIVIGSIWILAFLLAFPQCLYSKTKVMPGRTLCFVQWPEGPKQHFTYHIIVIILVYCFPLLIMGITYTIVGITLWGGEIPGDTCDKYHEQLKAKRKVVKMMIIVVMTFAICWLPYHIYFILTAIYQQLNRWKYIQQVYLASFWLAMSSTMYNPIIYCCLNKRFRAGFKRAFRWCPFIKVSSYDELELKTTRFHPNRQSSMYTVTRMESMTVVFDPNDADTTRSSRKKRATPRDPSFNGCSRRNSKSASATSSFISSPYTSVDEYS
Method: as §1, §2

major depression = details: data not conclusive due to high placebo response rate; cited from earlier work
cisplatin-induced emesis = details: acute and delayed phase, animals; cited from earlier work
[1] = system: NK1 agonist-induced vocalisation response; details: guinea-pigs; cited from earlier work
[2] = system: chemotherapy- and radiation-induced sickness in cancer patients; details: cited from earlier work; for reduction of the development of delayed emesis: >24 h; for control of the acute emetic phase: first 24 h, either or not associated with dexamethasone
schizophrenic patients = details: without affecting negative symptoms; cited from earlier work
dopamine release = details: frontal cortex vs striatum; cited from earlier work

Sequence of h-NK1 (P25103 whole entry): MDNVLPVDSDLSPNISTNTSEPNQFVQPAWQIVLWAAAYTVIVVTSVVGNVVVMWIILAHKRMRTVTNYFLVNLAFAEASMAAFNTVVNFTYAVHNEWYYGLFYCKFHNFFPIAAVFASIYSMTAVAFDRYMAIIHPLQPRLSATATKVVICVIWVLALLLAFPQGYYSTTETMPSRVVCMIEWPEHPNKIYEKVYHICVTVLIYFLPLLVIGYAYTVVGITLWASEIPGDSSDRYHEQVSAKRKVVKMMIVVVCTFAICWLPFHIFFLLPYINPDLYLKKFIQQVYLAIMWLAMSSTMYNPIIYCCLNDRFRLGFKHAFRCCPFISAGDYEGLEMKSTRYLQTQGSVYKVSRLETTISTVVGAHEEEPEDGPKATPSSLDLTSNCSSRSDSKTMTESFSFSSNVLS

Compound O=C(c1ccc(F)c(F)c1)N1CC(N2CCN([C@H]3CCN(C(=O)c4cc(C(F)(F)F)cc(C(F)(F)F)c4)[C@H](Cc4ccccc4)C3)CC2)C1 [Compound 5] has an IC50 (h-NK1) of 102 nM.
O=C(c1cc(C(F)(F)F)cc(C(F)(F)F)c1)N1CCC(N2CCN(C3CNC3)CC2)CC1Cc1ccccc1 (stereo not drawn) [Compound 2] gave an IC50 (h-NK1) of 123 nM.
In the case of COc1ccc(C(C)C)cc1CN[C@H]1C2CCN(CC2)[C@H]1C(c1ccccc1)c1ccccc1 [CJ-11,974, Ezlopitant], the “prevention of acute emesis” value (acute emesis) is listed as “additional effects”.
In the case of O=C(c1cc(C(F)(F)F)cc(C(F)(F)F)c1)N1CCC(N2CCN(C3CN(S(=O)(=O)c4cccs4)C3)CC2)CC1Cc1ccccc1 (stereo not drawn) [Compound 15], the IC50 (h-NK1) is reported as 32.4 nM, the IC50 (h-NK2) is reported as 5500 nM and the IC50 (h-NK3) is reported as 1230 nM.
For C[C@@H](O[C@H]1OCCN(Cc2n[nH]c(=O)[nH]2)[C@H]1c1ccc(F)cc1)c1cc(C(F)(F)F)cc(C(F)(F)F)c1 [aprepitant], the antidepressant effects (major depression) is given as “antidepressant effects”, the “inhibition of cisplatin-induced emesis” value (cisplatin-induced emesis) is given as “inhibit not only the acute but also the delayed phase” and the “prevention of acute emesis” value (acute emesis) is given as “additional effects”.
In the case of FC(F)(F)c1cc(CO[C@H]2CCCN[C@H]2c2ccccc2)cc(C(F)(F)F)c1 [L-733,060], the “antagonism of NK1 agonist-induced vocalisation response” value (from here on “antagonism”) [1] is listed as “antagonised”.
For CNCCC(Oc1ccc(C(F)(F)F)cc1)c1ccccc1 (stereo not drawn) [fluoxetine], the “antagonism” value [1] is listed as “antagonised”.
O=C(c1ccccc1)N1CC(N2CCN(C3CCN(C(=O)c4cc(C(F)(F)F)cc(C(F)(F)F)c4)C(Cc4ccccc4)C3)CC2)C1 (stereo not drawn) [Compound 3] showed an IC50 (h-NK1) of 19.5 nM.
For O=C([C@H]1CCOC1)N1CC(N2CCN([C@H]3CCN(C(=O)c4cc(C(F)(F)F)cc(C(F)(F)F)c4)[C@H](Cc4ccccc4)C3)CC2)C1 [Compound 12], the IC50 (h-NK1) was 43.7 nM, the IC50 (h-NK2) was ≥ 10000 nM and the IC50 (h-NK3) was ≥ 10000 nM.
In the case of CN(C)CCCN1c2ccccc2CCc2ccccc21 [imipramine], the “antagonism” value [1] is given as “antagonised”.
With O=C(C1CCOC1)N1CC(N2CCN(C3CCN(C(=O)c4cc(C(F)(F)F)cc(C(F)(F)F)c4)C(Cc4ccccc4)C3)CC2)C1 (stereo not drawn) [Compound 11] the IC50 (h-NK1) was 10.5 nM, the IC50 (h-NK2) was ≥ 10000 nM and the IC50 (h-NK3) was ≥ 10000 nM.
For O=C(c1ccoc1)N1CC(N2CCN([C@H]3CCN(C(=O)c4cc(C(F)(F)F)cc(C(F)(F)F)c4)[C@H](Cc4ccccc4)C3)CC2)C1 [Compound 9], the IC50 (h-NK1) was 55 nM.
For CN1C2CCCC1CC(NC(=O)c1nn(C)c3ccccc13)C2 (stereo not drawn) [granisetron], the “reduction of the development of delayed emesis” value [2] is listed as “poor efficacy” and the “control of the acute emetic phase” value [2] is listed as “effective”.
With O=C(c1cc(C(F)(F)F)cc(C(F)(F)F)c1)N1CCC(N2CCN(C3CN(c4cnccn4)C3)CC2)CC1Cc1ccccc1 (stereo not drawn) [Compound 19] the IC50 (h-NK1) was 45.7 nM, the IC50 (h-NK2) was ≥ 10000 nM and the IC50 (h-NK3) was ≥ 10000 nM.
For O=C(c1ccsc1)N1CC(N2CCN(C3CCN(C(=O)c4cc(C(F)(F)F)cc(C(F)(F)F)c4)C(Cc4ccccc4)C3)CC2)C1 (stereo not drawn) [Compound 8], the IC50 (h-NK1) was 204 nM.
With Cc1nnsc1C(=O)N1CC(N2CCN([C@H]3CCN(C(=O)c4cc(C(F)(F)F)cc(C(F)(F)F)c4)[C@H](Cc4ccccc4)C3)CC2)C1 [Compound 16] the IC50 (h-NK1) was 7.41 nM, the IC50 (h-NK2) was ≥ 10000 nM and the IC50 (h-NK3) was 4900 nM.
In the case of O=C(c1cnccn1)N1CC(N2CCN([C@H]3CCN(C(=O)c4cc(C(F)(F)F)cc(C(F)(F)F)c4)[C@H](Cc4ccccc4)C3)CC2)C1 [Compound 20], the IC50 (h-NK1) is reported as 41.7 nM, the IC50 (h-NK2) is reported as ≥ 10000 nM and the IC50 (h-NK3) is reported as 8130 nM.
For Cc1nccn1CC1CCc2c(c3ccccc3n2C)C1=O (stereo not drawn) [ondansetron], the “reduction of the development of delayed emesis” value [2] is given as “poor efficacy” and the “control of the acute emetic phase” value [2] is given as “effective”.
For CC(=O)N(C)C1(c2ccccc2)CCN(CCC[C@]2(c3ccc(Cl)c(Cl)c3)CCCN(C(=O)c3ccccc3)C2)CC1 [SR142801], the antipsychotic activity (schizophrenic patients) is given as “antipsychotic activity”.
In the case of COc1ccc(-n2nnnc2C(F)(F)F)cc1CN[C@H]1CCCN[C@H]1c1ccccc1 [(S)-GR205,171], the dopamine release (dopamine release) is listed as “enhance dopamine release in the frontal cortex but not in the striatum”.
CC(C)(C)OC(=O)N1CCC[C@@H]1C(=O)N1CC(N2CCN([C@H]3CCN(C(=O)c4cc(C(F)(F)F)cc(C(F)(F)F)c4)[C@H](Cc4ccccc4)C3)CC2)C1 [Compound 22] gave an IC50 (h-NK1) of 37.2 nM, an IC50 (h-NK2) of 5500 nM and an IC50 (h-NK3) of 1820 nM.
With CC(C)(C)OC(=O)NC(C)(C)C(=O)N1CC(N2CCN([C@H]3CCN(C(=O)c4cc(C(F)(F)F)cc(C(F)(F)F)c4)[C@H](Cc4ccccc4)C3)CC2)C1 [Compound 13] the IC50 (h-NK1) was 33.9 nM, the IC50 (h-NK2) was ≥ 10000 nM and the IC50 (h-NK3) was ≥ 10000 nM.
With O=C(c1ccccc1Cl)N1CC(N2CCN([C@H]3CCN(C(=O)c4cc(C(F)(F)F)cc(C(F)(F)F)c4)[C@H](Cc4ccccc4)C3)CC2)C1 [Compound 18] the IC50 (h-NK1) was 10.5 nM, the IC50 (h-NK2) was ≥ 10000 nM and the IC50 (h-NK3) was 4370 nM.
Cc1cc(C(=O)N2CC(N3CCN([C@H]4CCN(C(=O)c5cc(C(F)(F)F)cc(C(F)(F)F)c5)[C@H](Cc5ccccc5)C4)CC3)C2)n(C)n1 [Compound 7] gave an IC50 (h-NK1) of 72.4 nM and an IC50 (h-NK3) of 3470 nM.
With N#Cc1cccc(C(=O)N2CC(N3CCN([C@H]4CCN(C(=O)c5cc(C(F)(F)F)cc(C(F)(F)F)c5)[C@H](Cc5ccccc5)C4)CC3)C2)c1 [Compound 4] the IC50 (h-NK1) was 45.7 nM.
With O=C(c1cccnc1)N1CC(N2CCN([C@H]3CCN(C(=O)c4cc(C(F)(F)F)cc(C(F)(F)F)c4)[C@H](Cc4ccccc4)C3)CC2)C1 [Compound 6] the IC50 (h-NK1) was 49 nM.
In the case of CC(C)(C)C(=O)N1CC(N2CCN([C@H]3CCN(C(=O)c4cc(C(F)(F)F)cc(C(F)(F)F)c4)[C@H](Cc4ccccc4)C3)CC2)C1 [Compound 17], the IC50 (h-NK1) is reported as 11 nM, the IC50 (h-NK2) is reported as ≥ 10000 nM and the IC50 (h-NK3) is reported as 5500 nM.
For COc1ccccc1CN[C@H]1CCCN[C@H]1c1ccccc1 [CP-99,994], the “inhibition of cisplatin-induced emesis” value (cisplatin-induced emesis) is given as “inhibit not only the acute but also the delayed phase”.
In the case of CC(C(=O)N1CC(N2CCN([C@H]3CCN(C(=O)c4cc(C(F)(F)F)cc(C(F)(F)F)c4)[C@H](Cc4ccccc4)C3)CC2)C1)c1ccccc1 (stereo partly drawn) [Compound 14], the IC50 (h-NK1) is reported as 22.9 nM, the IC50 (h-NK2) is reported as 3980 nM and the IC50 (h-NK3) is reported as 631 nM.
Compound O=C(C1CC1)N1CC(N2CCN([C@H]3CCN(C(=O)c4cc(C(F)(F)F)cc(C(F)(F)F)c4)[C@H](Cc4ccccc4)C3)CC2)C1 [Compound 10] has an IC50 (h-NK1) of 63.1 nM.
